Where two headings read alike, the source gives them in different places.
Tests used:
smokers [1] = conditions: cited from earlier work
smokers [2] = conditions: cited from earlier work; remark: listed apart in the source
[3] = Cochrane (n > 7000); cited from earlier work
[4] = test system: adults smoking 10+ cigarettes daily
Description: This was a six-arm, multi-center, double-blind, randomized, placebo-controlled study conducted in male or female adults years of age, smoking 10+ cigarettes daily, and willing to set a quit date that is 5-7 days after randomization. […] The study also evaluated the effectiveness of a simplified TID dosing schedule for 1.5 mg and an increased dose of 3.0 mg (using both the commercial titration (COM) and simplified TID dosing schedules).
Study treatment started the day after randomization such that study treatment was initiated prior to the quit date, as shown in FIG. 3.
The primary efficacy endpoint for this study was the percent reduction in the number of cigarettes smoked during treatment, which was calculated as follows:
[formula] where N=total number of cigarettes smoked, B=number of cigarettes smoked at baseline and D=number of days.
The primary outcome (Cigarette Score) and the main secondary abstinence outcomes were subjected to sensitivity analyses. The main secondary abstinence outcomes were the initial quit rate at Week 4 and continued 4-week abstinence through Week 5 to Week 8, confirmed by expired CO of <10 ppm designated as Cess/W5-8/CO Success.
The primary outcome was based on the number of cigarettes smoked on each day from a diary. The Cigarette Score used the diary data for the planned 25 days while on study treatment. Presented are sensitivity analyses for the comparison of the 3.0 mg TID arm and the pooled placebo arm related to variations on the primary analysis of Cigarette Score. The alternative definition of the Cigarette Score featured cigarettes recorded in the diary after the planned quit period of Days 5-7, that is, from Day 8 onward, instead of from Day 1 onward.
Another alterative analysis was based on re-analyses of the primary Cigarette Score and the above alternative Cigarette Score, with a weight related to the standard error of the mean number of cigarettes estimated from the diary entries. The weight used for each subject was 1/(SE)^2, where SE is the standard error of the mean estimate, and this type of weighting, referred to as inverse variance weighting, is used commonly. This weighting gives greater weight to means that are estimated with a smaller SE. A small modification to this definition of weight was necessary, however. In computing 1/(SE)^2, a specific rule was used when SE=0, specifically when all diary entry values were equal. In these cases, the SE was computed as if one and only one of the recorded values was larger by one. It can be shown that when this modification to the data is made SE=1/N, where N is the number of the subjects daily (days) entries.

[5] = biological target: alpha4, beta2 (α4β2) receptors (Homo sapiens, UniProt P17787+P43681); conditions: cited from earlier work
[6] = end of treatment, 12 weeks (EAGLES)
[7] = 1.5 mg Downward Titration (n = 51)
[8] = 3.0 mg Downward Titration (n = 50)
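For TEAE: Abnormal dreams, subjects n (%) in this document: multicenter double-blind randomized placebo-controlled trial in adult smokers of 10 or more cigarettes per day, counting subjects with treatment-emergent adverse events per arm.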
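For TEAE: At least 1 AE, subjects n (%) in this document: multicenter double-blind randomized placebo-controlled trial in adult smokers of 10 or more cigarettes per day, counting subjects with treatment-emergent adverse events per arm.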
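For TEAE: Fatigue, subjects n (%) in this document: multicenter double-blind randomized placebo-controlled trial in adult smokers of 10 or more cigarettes per day, counting subjects with treatment-emergent adverse events per arm.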
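For TEAE: Headache, subjects n (%) in this document: multicenter double-blind randomized placebo-controlled trial in adult smokers of 10 or more cigarettes per day, counting subjects with treatment-emergent adverse events per arm.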

Chain of alpha4, beta2 (α4β2) receptors (P43681 29-627 limits assumed): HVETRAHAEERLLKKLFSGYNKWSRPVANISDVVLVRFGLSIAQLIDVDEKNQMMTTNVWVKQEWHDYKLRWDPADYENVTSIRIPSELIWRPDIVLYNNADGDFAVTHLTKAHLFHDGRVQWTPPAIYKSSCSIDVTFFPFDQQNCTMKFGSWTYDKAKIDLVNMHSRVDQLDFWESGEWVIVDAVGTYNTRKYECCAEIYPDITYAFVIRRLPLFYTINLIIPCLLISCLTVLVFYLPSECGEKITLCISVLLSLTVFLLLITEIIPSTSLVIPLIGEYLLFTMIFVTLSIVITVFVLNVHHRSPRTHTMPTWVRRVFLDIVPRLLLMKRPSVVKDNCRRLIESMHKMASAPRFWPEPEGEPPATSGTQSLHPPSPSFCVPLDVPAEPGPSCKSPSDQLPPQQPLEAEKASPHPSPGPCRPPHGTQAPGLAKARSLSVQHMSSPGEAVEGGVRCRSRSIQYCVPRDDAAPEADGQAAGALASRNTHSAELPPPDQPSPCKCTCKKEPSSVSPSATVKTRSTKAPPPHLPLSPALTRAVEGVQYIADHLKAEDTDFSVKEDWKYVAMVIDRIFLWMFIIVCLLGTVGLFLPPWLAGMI
Chain of alpha4, beta2 (α4β2) receptors (P17787 26-502): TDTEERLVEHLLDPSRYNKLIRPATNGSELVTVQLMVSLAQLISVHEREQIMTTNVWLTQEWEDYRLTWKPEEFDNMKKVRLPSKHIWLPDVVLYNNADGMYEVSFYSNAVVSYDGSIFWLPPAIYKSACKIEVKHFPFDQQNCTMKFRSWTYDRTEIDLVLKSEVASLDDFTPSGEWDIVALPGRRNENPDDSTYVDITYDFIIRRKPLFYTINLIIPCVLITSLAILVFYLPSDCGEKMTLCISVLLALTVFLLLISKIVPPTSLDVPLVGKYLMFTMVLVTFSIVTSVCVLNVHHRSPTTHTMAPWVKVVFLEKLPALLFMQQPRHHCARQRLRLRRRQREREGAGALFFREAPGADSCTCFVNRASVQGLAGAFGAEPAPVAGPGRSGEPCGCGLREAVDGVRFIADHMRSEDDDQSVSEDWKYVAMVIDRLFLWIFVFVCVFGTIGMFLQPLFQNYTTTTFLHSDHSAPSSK

For `c1cnc2cc3c(cc2n1)[C@@H]1CNC[C@H]3C1` [Chantix ®, varenicline], the “Drug-placebo difference in quit rate” value (smokers [1]; 4 weeks off treatment (EAGLES)) is given as 20.7%, the “OR, quit rate versus placebo” value (smokers [1]; 4 weeks off treatment (EAGLES)) is given as 3.5 and the “Quit Rate at End of Treatment” value (smokers [1]; 12 weeks (EAGLES)) is given as 38.0%. The “CAR weeks 9-24 % (95% CI)” value (smokers [1]; Region Non-U.S.) was 27.9 (25.2-30.8) %, the “Versus placebo OR (95% CI), CAR weeks 9-24” value (smokers [1]; Region Non-U.S.) was 2.80 (2.20-3.55) and the “Versus placebo OR (95% CI), CAR weeks 9-24” value (smokers [1]; Region U.S.) was 2.66 (1.99-3.55). The “CAR weeks 9-24 % (95% CI)” value (smokers [1]; Region U.S., listed as Chantix®) was 16%, the “CAR weeks 9-24 % (95% CI)” value (smokers [1]; Region U.S., listed as Varenicline) was 16.1 (14.0-18.4) % and the “overall quit rate at 24 weeks” value (smokers [1]; all regions (EAGLES)) was 22%. The “Drug-placebo difference in quit rate” value (smokers [1]; [6]) was 24.3%, the “OR, quit rate versus placebo” value (smokers [1]; [6]) was 4.0 and the “Quit Rate at 4 Weeks Off Treatment” value (smokers [1]; sustained quit (EAGLES)) was 33.2%. For the same compound, the “Quit Rate at 4 Weeks Treatment” value (smokers [2]; 4 weeks (ONCKEN)) was 37.7%, the “Drug-placebo difference in quit rate” value (smokers [2]; 4 weeks treatment (ONCKEN)) was 21.4% and the “OR, quit rate versus placebo” value (smokers [2]; 4 weeks treatment (ONCKEN)) was 3.1. The Abnormal dreams [3] was 12.5%, the Headache [3] was 12.7% and the Insomnia [3] was 14.2%. The Nausea [3] was 27.8% and the “Serious AEs” value [3] was 3.3%.
For `O=c1cccc2n1C[C@@H]1CNC[C@H]2C1` [cytisine, (−)-Cytisine], the “Reduction in CO (expired)” value ([4]; 1.5 mg TID) was 71%, the “Reduction in CO (expired)” value ([4]; 1.5 mg, titration (COM) schedule) was 78% and the “Reduction in CO (expired)” value ([4]; 3.0 mg TID) was 80%. The “OR, quit rate versus placebo” value ([4]; 3.0 mg TID, 4 weeks off treatment, Table 11) was 5.0, the “OR, quit rate versus placebo” value ([4]; 3.0 mg TID, end of treatment (4 weeks), Tables 9-10) was 6.3 and the “Reduction in CO (expired)” value ([4]; 3.0 mg, titration (COM) schedule) was 71%. The serum cotinine levels ([4]; all cytisine-treated arms, Week 4) was “material reduction”, the “Cigarette Score effect estimate (95% confidence interval), 3.0 mg TID versus pooled placebo” value ([4]; weighted analysis, diary from start of intervention) was −11.8 (−24.4, 0.9) and the “TEAE: Abnormal dreams, subjects n (%)” value [7] was 4 (8%). The “TEAE: At least 1 AE, subjects n (%)” value [7] was 29 (57%), the “TEAE: Fatigue, subjects n (%)” value [7] was 1 (2%) and the “TEAE: Headache, subjects n (%)” value [7] was 1 (2%). The “TEAE: Insomnia, subjects n (%)” value [7] was 3 (6%), the “TEAE: Nausea, subjects n (%)” value [7] was 5 (10%) and the “TEAE: URTI, subjects n (%)” value [7] was 3 (6%). For the same compound, the “TEAE: Abnormal dreams, subjects n (%)” value (1.5 mg TID (n = 52)) was 4 (8%), the “TEAE: At least 1 AE, subjects n (%)” value (1.5 mg TID (n = 52)) was 20 (39%) and the “TEAE: Constipation, subjects n (%)” value (1.5 mg TID (n = 52)) was 1 (2%). For the same compound, the “TEAE: Fatigue, subjects n (%)” value (1.5 mg TID (n = 52)) was 3 (6%), the “TEAE: Headache, subjects n (%)” value (1.5 mg TID (n = 52)) was 6 (12%) and the “TEAE: Insomnia, subjects n (%)” value (1.5 mg TID (n = 52)) was 4 (8%). The “TEAE: Nausea, subjects n (%)” value (1.5 mg TID (n = 52)) was 1 (2%), the “TEAE: URTI, subjects n (%)” value (1.5 mg TID (n = 52)) was 5 (10%) and the “overall safety following dosing” value (1.5 mg or 3.0 mg treatment arms on both schedules) was “no safety concerns”. For the same compound, the “TEAE: Abnormal dreams, subjects n (%)” value [8] was 7 (14%), the “TEAE: At least 1 AE, subjects n (%)” value [8] was 23 (46%) and the “TEAE: Fatigue, subjects n (%)” value [8] was 2 (4%). The “TEAE: Headache, subjects n (%)” value [8] was 1 (2%), the “TEAE: Insomnia, subjects n (%)” value [8] was 4 (8%) and the “TEAE: Nausea, subjects n (%)” value [8] was 3 (6%). The “TEAE: URTI, subjects n (%)” value [8] was 2 (4%), the “TEAE: Abnormal dreams, subjects n (%)” value (3.0 mg TID (n = 50)) was 3 (6%) and the “TEAE: At least 1 AE, subjects n (%)” value (3.0 mg TID (n = 50)) was 21 (42%). For the same compound, the “TEAE: Constipation, subjects n (%)” value (3.0 mg TID (n = 50)) was 3 (6%), the “TEAE: Fatigue, subjects n (%)” value (3.0 mg TID (n = 50)) was 1 (2%) and the “TEAE: Headache, subjects n (%)” value (3.0 mg TID (n = 50)) was 2 (4%). The “TEAE: Insomnia, subjects n (%)” value (3.0 mg TID (n = 50)) was 3 (6%), the “TEAE: Nausea, subjects n (%)” value (3.0 mg TID (n = 50)) was 3 (6%) and the “TEAE: URTI, subjects n (%)” value (3.0 mg TID (n = 50)) was 3 (6%). The “Serious AEs” value (ORCA-1, pooled Cytisinicline (n = 203)) was 0, the “TEAE: Abnormal dreams, subjects n (%)” value (Pooled Cytisinicline (n = 203)) was 18 (9%) and the “TEAE: At least 1 AE, subjects n (%)” value (Pooled Cytisinicline (n = 203)) was 93 (46%). For the same compound, the “TEAE: Constipation, subjects n (%)” value (Pooled Cytisinicline (n = 203)) was 4 (2%), the “TEAE: Fatigue, subjects n (%)” value (Pooled Cytisinicline (n = 203)) was 7 (3%) and the “TEAE: Headache, subjects n (%)” value (Pooled Cytisinicline (n = 203)) was 10 (5%). The “TEAE: Insomnia, subjects n (%)” value (Pooled Cytisinicline (n = 203)) was 14 (7%), the “TEAE: Nausea, subjects n (%)” value (Pooled Cytisinicline (n = 203)) was 12 (6%) and the “TEAE: URTI, subjects n (%)” value (Pooled Cytisinicline (n = 203)) was 13 (6%). For the same compound, the “binding to receptor subtype” value [5] was “bind strongly and preferentially”.
In the case of `CN1CCCC1c1cccnc1` (stereo not shown) [nicotine, Nicotine, reference compound], the “binding to receptor subtype” value [5] is listed as “bind strongly and preferentially”.
